Laboratory results as given in patent publication US6413986B1, “[1-indanon-2-yl]methylpiperidines” (Aventis Pharmaceuticals Inc., priority 1991, dated 2002).
pIC50: −log10 of the molar value.

Target: T1, Acetylcholinesterase (Rattus norvegicus, UniProt P37136)
T1 construct: Male Wistar rats are decapitated, brains rapidly removed, corpora striata dissected free, weighed and homogenized; from tissue; host or cells: rat brain corpora striata homogenate (male Wistar rats)
T1 sequence (P37136 32-614): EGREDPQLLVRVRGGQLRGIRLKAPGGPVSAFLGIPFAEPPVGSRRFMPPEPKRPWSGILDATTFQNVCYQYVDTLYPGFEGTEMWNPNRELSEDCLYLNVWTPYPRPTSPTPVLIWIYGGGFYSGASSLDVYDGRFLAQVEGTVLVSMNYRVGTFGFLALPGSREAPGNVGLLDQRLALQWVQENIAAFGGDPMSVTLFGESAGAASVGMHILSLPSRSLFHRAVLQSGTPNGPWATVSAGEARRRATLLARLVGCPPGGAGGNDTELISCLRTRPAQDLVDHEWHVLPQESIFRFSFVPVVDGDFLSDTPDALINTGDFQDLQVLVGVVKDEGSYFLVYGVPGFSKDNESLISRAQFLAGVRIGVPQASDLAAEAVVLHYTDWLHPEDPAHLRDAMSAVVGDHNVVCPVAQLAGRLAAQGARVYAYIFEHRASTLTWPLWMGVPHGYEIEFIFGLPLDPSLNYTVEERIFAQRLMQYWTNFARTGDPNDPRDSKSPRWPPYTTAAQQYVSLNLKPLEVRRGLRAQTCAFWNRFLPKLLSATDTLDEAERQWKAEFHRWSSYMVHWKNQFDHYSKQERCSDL
Assay: inhibition of acetyl cholinesterase activity (acetylthiocholine/DTNB spectrophotometric assay, rat striatal homogenate)
Type: biochemical, Male Wistar rats
Conditions: rat corpora striata homogenate; preincubated for 10 minutes at 37° C.; substrate acetylthiocholine 5 mM final; DTNB 0.5 mM; 412 nm; log-probit analysis
Experimental: The [1-indanon-2-yl]methylpiperidines of the present invention are useful as agents for the relief of memory dysfunction, particularly dysfunctions associated with decreased cholinergic activity such as those found in Alzheimer's disease.
4. A 2 mM stock solution of the test drug is made up in a suitable solvent and q.sed to volume with 0.5 mM DTNB (reagent 3). Drugs are serially diluted (1:10) such that the final concentration (in cuvette) is 10^−4M and screened for activity. If active, IC50 values are determined from the inhibitory activity of subsequent concentrations.
Male Wistar rats are decapitated, brains rapidly removed, corpora striata dissected free, weighed and homogenized in 19 volumes (approximately 7 mg protein/ml) of 0.05 M sodium phosphate, pH 7.2 using a Potter-Elvehjem homogenizer. A 25 μl aliquot of this suspension is added to 1 ml of the vehicle or various concentrations of the test drug and preincubated for 10 minutes at 37° C.
Enzyme activity is measured with the Beckman DU-50 spectrophotometer. This method can be used for IC50 determinations and for measuring kinetic constants.
Reagents are added to the blank and sample cuvettes as follows:
Blank values are determined for each run to control for non-enzymatic hydrolysis of substrate and these values are automatically subtracted by the kindata program available on kinetics soft-pac module. This program also calculates the rate of absorbance change for each cuvette.
Substrate concentration is 10 mM diluted 1:2 in assay yielding final concentration of 5 mM. DTNB concentration is 0.5 mM final concentration
% Inhibition=slope control-slope drug/slope control×100
IC50 values are calculated from log-probit analysis.

| SMILES | pIC50 |
| --- | --- |
| O=C(NCc1ccccc1)Oc1ccc2c(c1)C(=O)C(CC1CCN(Cc3cccc(F)c3)CC1)C2 (stereo not shown) [1-(3-Fluorobenzyl)-4-[[6-(benzylaminocarbonyloxy)-1-indanon]-2-yl]-methylpiperidine] | 5.50 |
| CNC(=O)Oc1ccc2c(c1)C(=O)C(CC1CCN(Cc3cccc(F)c3)CC1)C2 (stereo not shown) [1-(3-Fluorobenzyl)-4-[[6-(methylaminocarbonyloxy)-1-indanon]-2-yl]methylpiperidine] | 5.82 |
| CCCCNC(=O)Oc1ccc2c(c1)C(=O)C(CC1CCN(Cc3ccccc3)CC1)C2 (stereo not shown) [1-Benzyl-4-[[6-(butylaminocarbonyloxy)-1-indanon]-2-yl]methylpiperidine] | 5.84 |
| CNC(=O)Oc1ccc2c(c1)C(=O)C(CC1CCN(Cc3ccccc3)CC1)C2 (stereo not shown) [1-Benzyl-4-[[6-methylaminocarbonyloxy)-1-indanon]-2-yl]methylpiperidine] | 5.87 |
